Test results reported in US5422341A, “Motilin-like polypeptides with gastrointestinal motor stimulating activity” (Ohmeda Pharmaceutical Products Division Inc., priority 1993, dated 1995).
Several values for one entry are separate records, joined by “and”; a condition that tells them apart may be missing. Equal values may be shown once. Square brackets hold non-standard residues; d marks the D form. Peptide text beside a SMILES is read from it. * marks the point of attachment. X1 = C[N+](C)(C)[C@@H](Cc1ccccc1)C(=O)*; X2 = C#CCN(C)[C@@H](Cc1ccccc1)C(=O)*; X4 = CCN(CC)[C@@H](Cc1ccccc1)C(=O)*; NMeF = CN[C@@H](Cc1ccccc1)C(=O)O

Legend:
motilin receptor = biological target: T1, motilin receptor (Oryctolagus cuniculus, UniProt G1T803); assay: Determination of motilin receptor binding affinity (displacement of [125I-Tyr7, Nle13]motilin(porcine)); set-up: species or system rabbit; conditions: negative logarithm of the concentration displacing 50% of [125I-Tyr7, Nle13]motilin(porcine) from rabbit antral smooth muscle membranes; read-out: pIC50 (converted)
T1 construct: from tissue; host or cells: rabbit antral smooth muscle membranes
Method: The motilin receptor binding affinity of the peptides of this invention was determined by using the general procedure of Bormans, Peelers and Vantrappen, Regul. […] Fitting was performed using the iterative least-squares procedure of the SAS-software package (SAS Institute, Inc., Cary, N.C., USA).

[1] = biological target: segments of rabbit duodenum (Oryctolagus cuniculus, UniProt G1T803); assay: Rabbit duodenal smooth muscle strip tissue bath assay; format: cell-based; conditions: negative logarithm of the dose giving 50% of the maximal response to motilin; isotonic contraction of rabbit duodenum segments
Method: The contractile response of segments of rabbit duodenum was determined isotonically in the tissue bath according to the procedure of Depoortere et at., J. Gastrointestinal Motility, 1, 150-159 (1989). The experimental protocol consisted of an equilibration period of 1 hour; a challenge with 10^-4 M acetylcholine followed by a wash-out period; a cumulative dose-response curve of a compound with, at the end, the addition of 10^-7 M motilin; and finally 10^-4 M acetylcholine. If the final response to 10^-4 M acetylcholine differed by more than 5% from the initial response, the results were discarded. The compounds were tested in the concentration range 10^-11 to 10^-4 M. The point corresponding to 50% of the maximal response to motilin (Emax) was determined by fitting the equation E=Emax (1+EC50 /[L]) through the data points. […] The dose giving 50% of the response is expressed using its negative logarithm (pEC50).

T1 sequence (G1T803 1-400): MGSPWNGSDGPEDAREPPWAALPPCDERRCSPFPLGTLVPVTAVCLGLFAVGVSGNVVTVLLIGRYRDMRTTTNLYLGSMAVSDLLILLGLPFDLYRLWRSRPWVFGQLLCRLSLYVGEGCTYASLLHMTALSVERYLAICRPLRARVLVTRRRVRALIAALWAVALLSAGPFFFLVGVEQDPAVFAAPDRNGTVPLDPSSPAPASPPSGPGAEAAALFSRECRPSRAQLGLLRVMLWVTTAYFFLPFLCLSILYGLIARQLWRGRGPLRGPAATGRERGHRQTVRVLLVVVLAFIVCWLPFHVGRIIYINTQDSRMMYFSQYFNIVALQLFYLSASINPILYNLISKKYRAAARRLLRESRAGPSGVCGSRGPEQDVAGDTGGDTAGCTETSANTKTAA
segments of rabbit duodenum, sequence (G1T803 1-400): as above

Compound	IC50 (motilin receptor)	pEC50 [1]
C#CCN(C)[C@@H](Cc1ccccc1)C(=O)N[C@H](C(=O)N1CCC[C@H]1C(=O)N[C@H](C(=O)N[C@@H](Cc1ccccc1)C(=O)N[C@H](C(=O)N[C@@H](Cc1ccc(O)cc1)C(=O)NCC(=O)N[C@@H](CCC(=O)O)C(=O)N[C@@H](CC(C)C)C(=O)N[C@@H](CCC(N)=O)C(=O)N[C@@H](CCCNC(=N)N)C(=O)N[C@@H](CC(C)C)C(=O)N[C@@H](CCC(N)=O)C(N)=O)[C@@H](C)O)[C@@H](C)CC)C(C)C (X2-VPIFTYGELQRLQ-NH2)	2 nM	7.57
CC[C@H](C)[C@H](NC(=O)[C@H](C)NC(=O)[C@@H](NC(=O)[C@H](Cc1ccccc1)[N+](C)(C)C)C(C)C)C(=O)N[C@@H](Cc1ccccc1)C(=O)N[C@H](C(=O)N[C@@H](Cc1ccc(O)cc1)C(=O)NCC(=O)N[C@@H](CCC(=O)O)C(=O)N[C@@H](CC(C)C)C(=O)N[C@@H](C)C(=O)N[C@H](CCCNC(=N)N)C(=O)N[C@@H](CC(C)C)C(=O)N[C@H](CCC(N)=O)C(N)=O)[C@@H](C)O (X1-VAIFTYGELA[dR]L[dQ]-NH2)	1.45 nM	7.22
CC[C@H](C)[C@H](NC(=O)[C@@H]1CCCN1C(=O)[C@@H](NC(=O)[C@H](Cc1ccccc1)[N+](C)(C)C)C(C)C)C(=O)N[C@@H](Cc1ccccc1)C(=O)N[C@H](C(=O)N[C@@H](Cc1ccc(O)cc1)C(=O)NCC(=O)N[C@@H](CCC(=O)O)C(=O)N[C@@H](CC(C)C)C(=O)N[C@@H](CCC(N)=O)C(=O)N[C@H](CCCNC(=N)N)C(=O)N[C@@H](CC(C)C)C(=O)N[C@@H](CCC(N)=O)C(=O)O)[C@@H](C)O (X1-VPIFTYGELQ[dR]LQ-OH)	3.55 nM and 2.14 nM	7.52
CC[C@H](C)[C@H](NC(=O)[C@@H]1CCCN1C(=O)[C@@H](NC(=O)[C@@H](N)Cc1ccccc1)C(C)C)C(=O)N[C@@H](Cc1ccccc1)C(=O)N[C@H](C(=O)N[C@@H](Cc1ccc(O)cc1)C(=O)NCC(=O)N[C@@H](CCC(=O)O)C(=O)N[C@@H](CC(C)C)C(=O)N[C@@H](CCC(N)=O)C(=O)N[C@H](CCCNC(=N)N)C(=O)N[C@@H](CC(C)C)C(=O)N[C@@H](CCC(N)=O)C(=O)N[C@@H](CCC(=O)O)C(=O)N[C@@H](CCCCN)C(=O)N[C@@H](CCC(=O)O)C(=O)N[C@@H](CCCNC(=N)N)C(=O)N[C@@H](CC(N)=O)C(=O)N[C@@H](CCCCN)C(=O)NCC(=O)N[C@@H](CCC(N)=O)C(=O)O)[C@@H](C)O [[D-Arg^12, Leu^13]pMOT(1-22)]	1.66 nM	7.67
CC[C@H](C)[C@H](NC(=O)[C@@H]1CCCN1C(=O)[C@@H](NC(=O)[C@H](Cc1ccccc1)N(CC)CC)C(C)C)C(=O)N[C@@H](Cc1ccccc1)C(=O)N[C@H](C(=O)N[C@@H](Cc1ccc(O)cc1)C(=O)NCC(=O)N[C@@H](CCC(=O)O)C(=O)N[C@@H](CC(C)C)C(=O)N[C@@H](CCC(N)=O)C(=O)N[C@@H](CCCNC(=N)N)C(=O)N[C@@H](CC(C)C)C(=O)N[C@@H](CCC(N)=O)C(N)=O)[C@@H](C)O [[Et2 Phe^1, Leu^13]pMOT(1-14) amide] (X4-VPIFTYGELQRLQ-NH2)	3.89 nM	7.54
CC[C@H](C)[C@H](NC(=O)[C@@H]1CCCN1C(=O)[C@@H](NC(=O)[C@@H](N)Cc1ccccc1)C(C)C)C(=O)N[C@@H](Cc1ccccc1)C(=O)N[C@H](C(=O)N[C@@H](Cc1ccc(O)cc1)C(=O)NCC(=O)N[C@@H](CCC(=O)O)C(=O)N[C@@H](CC(C)C)C(=O)N[C@@H](C)C(=O)N[C@H](CCCNC(=N)N)C(=O)N[C@@H](CC(C)C)C(=O)N[C@@H](CCC(N)=O)C(=O)O)[C@@H](C)O [[Ala^11, D-Arg^12, Leu^13]pMOT(1-14)] (H-FVPIFTYGELA[dR]LQ-OH)	1.66 nM	7.63
CC[C@H](C)[C@H](NC(=O)[C@H](C)NC(=O)[C@@H](NC(=O)[C@@H](N)Cc1ccccc1)C(C)C)C(=O)N[C@@H](Cc1ccccc1)C(=O)N[C@H](C(=O)N[C@@H](Cc1ccc(O)cc1)C(=O)NCC(=O)N[C@@H](CCC(=O)O)C(=O)N[C@@H](CC(C)C)C(=O)N[C@@H](CCC(N)=O)C(=O)N[C@H](CCCNC(=N)N)C(=O)N[C@@H](CC(C)C)C(=O)N[C@@H](CCC(N)=O)C(N)=O)[C@@H](C)O (H-FVAIFTYGELQ[dR]LQ-NH2)	1.95 nM	7.76
CC[C@H](C)[C@H](NC(=O)[C@H](C)NC(=O)[C@@H](NC(=O)[C@H](Cc1ccccc1)[N+](C)(C)C)C(C)C)C(=O)N[C@@H](Cc1ccccc1)C(=O)N[C@H](C(=O)N[C@@H](Cc1ccc(O)cc1)C(=O)NCC(=O)N[C@@H](CCC(=O)O)C(=O)N[C@@H](CC(C)C)C(=O)N[C@@H](C)C(=O)N[C@H](CCCNC(=N)N)C(=O)N[C@@H](CC(C)C)C(=O)N[C@@H](CCC(N)=O)C(N)=O)[C@@H](C)O (X1-VAIFTYGELA[dR]LQ-NH2)	1.95 nM	7.31
CC[C@H](C)[C@H](NC(=O)[C@H](C)NC(=O)[C@@H](NC(=O)[C@H](Cc1ccccc1)[N+](C)(C)C)C(C)C)C(=O)N[C@@H](Cc1ccccc1)C(=O)N[C@H](C(=O)N[C@@H](Cc1ccc(O)cc1)C(=O)NCC(=O)N[C@@H](CCC(=O)O)C(=O)N[C@@H](CC(C)C)C(=O)N[C@@H](CCC(N)=O)C(=O)N[C@H](CCCNC(=N)N)C(=O)N[C@@H](CC(C)C)C(=O)N[C@@H](CCC(N)=O)C(N)=O)[C@@H](C)O (X1-VAIFTYGELQ[dR]LQ-NH2) [listing 1 of 2 here]	2.63 nM	–
CC[C@H](C)[C@H](NC(=O)[C@H](C)NC(=O)[C@@H](NC(=O)[C@H](Cc1ccccc1)[N+](C)(C)C)C(C)C)C(=O)N[C@@H](Cc1ccccc1)C(=O)N[C@H](C(=O)N[C@@H](Cc1ccc(O)cc1)C(=O)NCC(=O)N[C@@H](CCC(=O)O)C(=O)N[C@@H](CC(C)C)C(=O)N[C@@H](CCC(N)=O)C(=O)N[C@H](CCCNC(=N)N)C(=O)N[C@@H](CC(C)C)C(=O)N[C@@H](CCC(N)=O)C(N)=O)[C@@H](C)O [[Me3 N^+ Phe^1, Ala^3, D-Arg^12, Leu^13 pMOT(1-14) amide] (X1-VAIFTYGELQ[dR]LQ-NH2)	–	7.57
CC[C@H](C)[C@H](NC(=O)[C@@H]1CCCN1C(=O)[C@@H](NC(=O)[C@H](Cc1ccccc1)NC)C(C)C)C(=O)N[C@@H](Cc1ccccc1)C(=O)N[C@H](C(=O)N[C@@H](Cc1ccc(O)cc1)C(=O)NCC(=O)N[C@@H](CCC(=O)O)C(=O)N[C@@H](CC(C)C)C(=O)N[C@@H](CCC(N)=O)C(=O)N[C@@H](CCCNC(=N)N)C(=O)N[C@@H](CC(C)C)C(=O)N[C@H](CCC(N)=O)C(N)=O)[C@@H](C)O (H-[NMeF]VPIFTYGELQRL[dQ]-NH2)	0.617 nM	–
CC[C@H](C)[C@H](NC(=O)[C@H](C)NC(=O)[C@@H](NC(=O)[C@H](Cc1ccccc1)[N+](C)(C)C)C(C)C)C(=O)N[C@@H](Cc1ccccc1)C(=O)N[C@H](C(=O)N[C@@H](Cc1ccc(O)cc1)C(=O)NCC(=O)N[C@@H](CCC(=O)O)C(=O)N[C@@H](CC(C)C)C(=O)N[C@@H](CCC(N)=O)C(=O)N[C@H](CCCNC(=N)N)C(=O)N[C@@H](CC(C)C)C(=O)N[C@@H](CCC(N)=O)C(N)=O)[C@@H](C)O [[Me3 N^+ Phe^1, Ala^3, D-Arg^13, Leu^13 ]pMOT(1-14) amide] (X1-VAIFTYGELQ[dR]LQ-NH2)	–	7.32
CC[C@H](C)[C@H](NC(=O)[C@H](C)NC(=O)[C@@H](NC(=O)[C@H](Cc1ccccc1)[N+](C)(C)C)C(C)C)C(=O)N[C@@H](Cc1ccccc1)C(=O)N[C@H](C(=O)N[C@@H](Cc1ccc(O)cc1)C(=O)NCC(=O)N[C@@H](CCC(=O)O)C(=O)N[C@@H](CC(C)C)C(=O)N[C@@H](CCC(N)=O)C(=O)N[C@H](CCCNC(=N)N)C(=O)N[C@@H](CC(C)C)C(=O)N[C@@H](CCC(N)=O)C(N)=O)[C@@H](C)O (X1-VAIFTYGELQ[dR]LQ-NH2) [listing 2 of 2 here]	1.62 nM	–
